From BindingDB's records for doi:10.1016/j.bmcl.2011.02.072 (Bharati Vidyapeeth Deemed University, 2011)

Molecular target: T1, Amine oxidase [flavin-containing] A (Homo sapiens, UniProt P21397)
T1 sequence (P21397 whole entry): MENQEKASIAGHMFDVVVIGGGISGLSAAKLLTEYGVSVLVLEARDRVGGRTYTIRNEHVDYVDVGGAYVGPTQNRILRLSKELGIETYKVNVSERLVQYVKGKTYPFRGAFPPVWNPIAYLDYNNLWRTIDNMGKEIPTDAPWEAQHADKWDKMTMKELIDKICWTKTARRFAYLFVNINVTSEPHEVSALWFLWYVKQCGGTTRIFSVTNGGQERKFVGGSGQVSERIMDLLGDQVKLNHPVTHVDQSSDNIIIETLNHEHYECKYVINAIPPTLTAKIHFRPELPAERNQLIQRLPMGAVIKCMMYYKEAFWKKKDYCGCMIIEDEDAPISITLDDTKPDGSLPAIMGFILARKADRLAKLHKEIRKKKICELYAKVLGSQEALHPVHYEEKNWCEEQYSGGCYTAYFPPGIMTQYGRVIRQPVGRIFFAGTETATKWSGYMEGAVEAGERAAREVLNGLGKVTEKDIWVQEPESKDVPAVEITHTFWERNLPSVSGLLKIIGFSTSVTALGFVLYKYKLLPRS
Assay: […]

SMILES	Ki [nM]
Cn1cccc1C(=O)[C@H](c1ccccc1)N1CCCC1 [1-(1-Methyl-1H-pyrrol-2-yl)-2-phenyl-2-pyrrolidin-1-yl-ethanone (+)-S]	9.51
Cn1cccc1C(=O)[C@@H](c1ccccc1)N1CCCC1 [1-(1-Methyl-1H-pyrrol-2-yl)-2-phenyl-2-pyrrolidin-1-yl-ethanone (-)-R]	3.5
